The source of these data is patent US10117909B2, “Combination of an insulin and a GLP-1 agonist” (Sanofi-Aventis Deutschland GmbH, priority 2008, dated 2018).

The assay can be described thus: Oral glucose tolerance test (OGTT) in healthy dogs. It counts as in vivo, dog. Particulars: male beagle, n=6, single s.c. injection at time 0, insulin glargine 0.3 U/kg, AVE0010 10 μg/kg, relative to Lantus placebo; for OGTT-induced postprandial increase in blood glucose: repeated OGTT 2 g/kg p.o. at 30 min and 5 h; for blood glucose concentration in the postabsorptive phase: repeated OGTT 2 g/kg p.o. Here is the method:
Model: Oral glucose tolerance test (OGTT) in healthy dogs: Comparison of the insulin glargine/AVE0010 combination with the two individual active compounds.
• Male normoglycemic beagles • Bodyweight: ˜15 kg • Number per group: n=6 Study Design (See FIG. 1) • Individual subcutaneous injections of placebo or test formulation at time 0 • 2 oral administrations of glucose, at 2 g of glucose/kg of bodyweight, at times 30 min and 5 h • Blood samples are taken to determine blood glucose, plasma insulin, and c-peptide Group Division (n=6) • Placebo (Lantus placebo formulation without API) • Insulin glargine (0.3 μl/kg s.c., equivalent to 1.8 nmol/kg). Insulin glargine is Gly(A21)-Arg(B31)-Arg(B32) human insulin. • AVE0010 (10 μg/kg s.c. in Lantus placebo formulation, equivalent to 2 nmol/kg).
AVE0010 is des Pro^36exendin-4(1-39)-Lys6-NH2. • AVE0010/insulin glargine combination (10 μg/kg AVE0010/0.3 μl/kg insulin glargine s.c.)

Entries after “also recorded” stand apart in the source; their conditions may differ.

Take “des Pro^36exendin-4(1-39)-Lys6-NH2 [AVE0010]”: the “OGTT-induced postprandial increase in blood glucose” value is on record as “prevents the OGTT-induced postprandial increase in blood glucose almost completely” and the “blood glucose concentration in the postabsorptive phase” value is given as “no effect on the glucose concentration in the postabsorptive phase; also recorded: has no effect on the level of glucose, which has fallen again following administration of glucose”.

In the case of “Gly(A21)-Arg(B31)-Arg(B32) human insulin [insulin glargine]”, the “OGTT-induced postprandial increase in blood glucose” value is “does not prevent the OGTT-induced increase in blood glucose; also recorded: has no effect on the postprandial glucose level” and the “blood glucose concentration in the postabsorptive phase” value is given as “reinforces the expected delayed lowering of blood glucose concentration in the postabsorptive phase”.
